Assay [1] addresses T1, Cyclin D1-cdk4 (Homo sapiens, UniProt P11802). Put plainly: Cyclin D1-cdk4 kinase activity with the ING peptide as substrate. In kind it is biochemical. How it is done: The compounds of Formula I were tested using in vitro. An important in vitro test is the ability of the compound to inhibit the activity of the CDK4 enzyme. This test is done using Rb^ING and/or Rb^21 substrates as described in the literature (KONSTANTINIDIS, A. K., et al, J. Biol. Chem. 273, 26506–26515 (1998)). The test yields the micromolar concentration of the test compound, which produces a 50% inhibition of the CDK4 enzyme activity.
Assay of Cyclin D1-cdk4 Kinase Activity with the ING Peptide as Substrate.
The cyclin D1-cdk4 kinase activity of a compound was assayed by preparing a 100 ul reaction at the following concentrations: 35 mM Hepes pH 7.0, 10 mM MgCl2, 300 uM ATP, 200 uM ING peptide, 1.0 uCi of γ-^33P-ATP, 4.34 ug of cyclin D-cdk4 enzyme, 4% DMSO, and various concentrations of inhibitor. The reaction was incubated at room temperature (about 74° F.) for 60 minutes, and then terminated by the addition of 100 ul of 10% phosphoric acid. Next, the reaction was filtered through a Millipore Multiscreen-PH Plate—Catalog number MAPH NOB 10, and the plate was washed 2 times with 320 ul each of 0.5% phosphoric acid, followed by the addition of 100 ul of scintillation fluid and quantitation on a Packard Instruments, Top Count, scintillation counter.

The target of assay [2] is T1, Cyclin D1-cdk4. The assay is described as follows: Cyclin D1-cdk4 kinase activity with the Rb21 protein as substrate. In kind it is biochemical. The procedure:
The compounds of Formula I were tested using in vitro. An important in vitro test is the ability of the compound to inhibit the activity of the CDK4 enzyme. This test is done using Rb^ING and/or Rb^21 substrates as described in the literature ([…]., et al, J. Biol. Chem. 273, 26506-26515 (1998)). […] The reaction was incubated at room temperature (about 74° F.) for 60 minutes, and then terminated by the addition of 100 ul of 25% trichloroacetic acid. Next, the reaction was filtered through a Millipore Multiscreen-FC Plate-Catalog number MAFC NOB 10, and the plate was washed 2 times with 320 ul each of 10% trichloroacetic acid, followed by the addition of 100 ul of scintillation fluid and quantitation on a Packard Instruments, Top Count, scintillation counter.

The test system of assay [3] is HCT116 cells. Put plainly: Cell growth inhibition assay (MTT), HCT116. Type of assay: cell-based. As to conditions: Homo sapiens, HCT-116, 72 h drug exposure. An excerpt:
(§1) A major in vitro test is the cell growth inhibition test. In this test, the concentration of the test compound that causes a 50% inhibition of cell growth for a selected cell line. A low value is desirable in this test. This test is done according to a standard protocol (SCHULTZ, R. M., et al, Oncology Res. 5, 223–228 (1993)). Another major in vitro test is the G1 arrest test. This test measures the proportion of the cells that are arrested in the G1 phase relative to control. A result above 1.5 is desirable in this test. […] The results are expressed as a percentage inhibition of ser-780 pRb phosphorylation in drug treated cells versus control cells treated with DMSO alone. […]

A further assay deals with H460 cells. The assay is described as follows: Cell growth inhibition assay (MTT), H460. As to conditions: Homo sapiens, NCI-H460, 72 h drug exposure. Type of assay: cell-based.
Excerpt: as §1

In assay [4] the test system is HCT116 cells. The assay is described as follows: G1 arrest test, cell cycle analysis using flow cytometry. Type of assay: cell-based, human. As to conditions: HCT116 cells after 24 h incubation period; at IC50 conc.
Excerpt: as §1
(In general: Flow cytometry measures light scatter and fluorescence of single cells or particles in a stream.)

The subject of assay [5] is Ser-780 pRb phosphorylation in HCT116 cells. The assay is described as follows: Inhibition of Rb phosphorylation assay. Type of assay: cell-based, human. As to conditions: HCT116 cells after 24 h incubation period.
Excerpt: as §1
Human HCT116 colon carcinoma cell line was purchased from American Tissue Culture Collection (Rockville, Md.) and maintained as monolayer in RPMI-1640 with L-Glutamine and 25 mM HEPES supplemented with 10% fetal bovine serum in a 37° C. incubator with a 10% CO2 atmosphere. […] Protein concentration was determined by the Bio-Rad DC protein assay (Bio-Rad, Hercules, Calif.). […]

Marks after values point to notes of the source that are not given here.

T1 sequence (P11802 whole entry): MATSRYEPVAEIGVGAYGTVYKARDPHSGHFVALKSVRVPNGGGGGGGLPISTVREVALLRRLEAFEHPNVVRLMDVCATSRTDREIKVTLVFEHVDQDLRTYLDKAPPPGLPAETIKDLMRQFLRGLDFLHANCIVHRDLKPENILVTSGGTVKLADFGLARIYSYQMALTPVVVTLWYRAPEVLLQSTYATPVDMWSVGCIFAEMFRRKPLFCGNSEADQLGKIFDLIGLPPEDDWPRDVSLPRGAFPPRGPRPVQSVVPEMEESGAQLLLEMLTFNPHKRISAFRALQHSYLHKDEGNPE
T1 sequence (P24385 whole entry partner): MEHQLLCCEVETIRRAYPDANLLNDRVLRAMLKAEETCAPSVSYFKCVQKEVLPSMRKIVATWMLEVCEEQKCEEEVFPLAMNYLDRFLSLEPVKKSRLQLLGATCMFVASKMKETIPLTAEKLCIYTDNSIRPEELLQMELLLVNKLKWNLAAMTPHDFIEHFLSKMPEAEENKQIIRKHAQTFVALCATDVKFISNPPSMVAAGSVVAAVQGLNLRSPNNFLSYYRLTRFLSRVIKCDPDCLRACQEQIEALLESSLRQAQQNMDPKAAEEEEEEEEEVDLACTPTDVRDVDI

`COc1ccc2c(c1)[nH]c1c3ccc4ccn(C)c4c3c3c(c21)C(=O)NC3=O` [Example 1, 11-Methoxy-5-methyl-5H,13H-indolo[6,7-a]pyrrolo[3,4-c]carbazole-6,8-dione]: the IC50 worked out at 0.0431 µM on Cyclin D1-cdk4 [1] (Table 1, ING peptide substrate, read-out: RbING IC50); 0.04 µM at Cyclin D1-cdk4 [1] (Table 2, Rb^ING substrate, read-out: CDK4 Inhibition (IC50/μM) Rb^ING); 0.00165 µM at Cyclin D1-cdk4 [2] (Table 1, Rb21 protein substrate, read-out: Rb21 IC50); 0.001 µM on Cyclin D1-cdk4 [2] (Table 2, Rb^21 substrate, read-out: CDK4 Inhibition (IC50/μM) Rb^21); 1.8 µM in the assay with HCT116 cells [3]; 1.09 µM in the assay on H460 cells. The “G1 Arrest; x vs control” value with HCT116 cells [4] is 2.6^c x vs control. The “% Inhibtion of Rb Phosphorylation in vitro @3XIC50” value in assay [5] (compound at 3XIC50) amounted to 97%. For the same compound, the “% Inhibtion of Rb Phosphorylation in vitro @IC50” value in assay [5] (compound at IC50) is reported as 90%.

For the origin of these results see patent US7109229B2, “Methods and compounds for treating proliferative diseases” (Eli Lilly and Company, priority 2000, dated 2006).
